Reference: publication PMC6084503, “Pyrrolo[3,2-c]pyridine derivatives with potential inhibitory effect against FMS kinase: in vitro biological studies” (Journal of Enzyme Inhibition and Medicinal Chemistry, 2018)

Experiments:
Assay type in all cases: biochemical
Settings in all cases: single-dose concentration of 1 μM
[1] = biological target: T1, FMS kinase (Homo sapiens, UniProt P07333); test: Kinase HotSpot cell-free enzyme assay, FMS kinase
T1 construct: purchased Reaction Biology Corp

[2] = biological target: T2, mTOR (Homo sapiens, UniProt P42345); test: Kinase HotSpot 40-kinase panel
T2 construct: purchased Reaction Biology Corp. (Kinase HotSpot)
Experimental: (§1) Reaction Biology Corp. Kinase HotSpot^SM service [http://www.reactionbiology.com] was utilised for screening of the target compounds as per the protocol reported in the literature.
(§2) Compound 1r was tested against a panel of 40 kinases including FMS. […] Its inhibition percentages against FLT3 (D835Y) and c-MET kinases were 42% and 40%, respectively. So its IC50 values against both of them will be in micromolar scale. […] The inhibition percentages exerted by compound 1r against the other 37 tested kinases were less than 28%.

[3] = biological target: T3, c-MET (Homo sapiens, UniProt P08581); test: Kinase HotSpot 40-kinase panel
T3 construct: purchased Reaction Biology Corp. (Kinase HotSpot)
Experimental: as §1, §2

[4] = biological target: T4, MLK1 (Homo sapiens, UniProt P80192); test: Kinase HotSpot 40-kinase panel
T4 construct: purchased Reaction Biology Corp. (Kinase HotSpot)
Experimental: as §1, §2

[5] = biological target: T5, JNK1α1 (Homo sapiens, UniProt P45983); test: Kinase HotSpot 40-kinase panel
T5 construct: purchased Reaction Biology Corp. (Kinase HotSpot)
T5 sequence (P45983 1-384 isoform P45983-2): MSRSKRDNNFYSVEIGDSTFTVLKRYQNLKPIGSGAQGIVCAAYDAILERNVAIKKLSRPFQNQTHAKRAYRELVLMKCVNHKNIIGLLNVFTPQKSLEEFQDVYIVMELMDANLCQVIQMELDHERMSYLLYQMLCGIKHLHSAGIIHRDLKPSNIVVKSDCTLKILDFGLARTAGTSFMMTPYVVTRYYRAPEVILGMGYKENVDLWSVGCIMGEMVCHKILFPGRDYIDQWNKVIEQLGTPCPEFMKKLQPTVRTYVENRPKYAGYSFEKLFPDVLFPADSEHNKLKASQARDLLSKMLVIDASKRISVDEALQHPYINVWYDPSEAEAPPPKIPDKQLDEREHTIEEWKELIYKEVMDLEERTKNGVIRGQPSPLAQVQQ
Experimental: as §1, §2

[6] = biological target: T6, FLT3 (D835Y) (Homo sapiens, UniProt P36888, D835Y); test: Kinase HotSpot 40-kinase panel
T6 construct: purchased Reaction Biology Corp. (Kinase HotSpot)
Experimental: as §1, §2

[7] = biological target: T7, PLK1 (Homo sapiens, UniProt P53350); test: Kinase HotSpot 40-kinase panel
T7 construct: purchased Reaction Biology Corp. (Kinase HotSpot)
Experimental: as §1, §2

[8] = biological target: T8, SYK (Homo sapiens, UniProt P43405); test: Kinase HotSpot 40-kinase panel
T8 construct: purchased Reaction Biology Corp. (Kinase HotSpot)
Experimental: as §1, §2

[9] = biological target: T9, RET (Homo sapiens, UniProt P07949); test: Kinase HotSpot 40-kinase panel
T9 construct: purchased Reaction Biology Corp. (Kinase HotSpot)
Experimental: as §1, §2

[10] = biological target: T10, CDK2/cyclinE (Homo sapiens, UniProt P24941); test: Kinase HotSpot 40-kinase panel
T10 construct: purchased Reaction Biology Corp. (Kinase HotSpot)
Experimental: as §1, §2

[11] = biological target: T11, ALK (Homo sapiens, UniProt Q9UM73); test: Kinase HotSpot 40-kinase panel
T11 construct: purchased Reaction Biology Corp. (Kinase HotSpot)
T11 sequence (Q9UM73 19-1620): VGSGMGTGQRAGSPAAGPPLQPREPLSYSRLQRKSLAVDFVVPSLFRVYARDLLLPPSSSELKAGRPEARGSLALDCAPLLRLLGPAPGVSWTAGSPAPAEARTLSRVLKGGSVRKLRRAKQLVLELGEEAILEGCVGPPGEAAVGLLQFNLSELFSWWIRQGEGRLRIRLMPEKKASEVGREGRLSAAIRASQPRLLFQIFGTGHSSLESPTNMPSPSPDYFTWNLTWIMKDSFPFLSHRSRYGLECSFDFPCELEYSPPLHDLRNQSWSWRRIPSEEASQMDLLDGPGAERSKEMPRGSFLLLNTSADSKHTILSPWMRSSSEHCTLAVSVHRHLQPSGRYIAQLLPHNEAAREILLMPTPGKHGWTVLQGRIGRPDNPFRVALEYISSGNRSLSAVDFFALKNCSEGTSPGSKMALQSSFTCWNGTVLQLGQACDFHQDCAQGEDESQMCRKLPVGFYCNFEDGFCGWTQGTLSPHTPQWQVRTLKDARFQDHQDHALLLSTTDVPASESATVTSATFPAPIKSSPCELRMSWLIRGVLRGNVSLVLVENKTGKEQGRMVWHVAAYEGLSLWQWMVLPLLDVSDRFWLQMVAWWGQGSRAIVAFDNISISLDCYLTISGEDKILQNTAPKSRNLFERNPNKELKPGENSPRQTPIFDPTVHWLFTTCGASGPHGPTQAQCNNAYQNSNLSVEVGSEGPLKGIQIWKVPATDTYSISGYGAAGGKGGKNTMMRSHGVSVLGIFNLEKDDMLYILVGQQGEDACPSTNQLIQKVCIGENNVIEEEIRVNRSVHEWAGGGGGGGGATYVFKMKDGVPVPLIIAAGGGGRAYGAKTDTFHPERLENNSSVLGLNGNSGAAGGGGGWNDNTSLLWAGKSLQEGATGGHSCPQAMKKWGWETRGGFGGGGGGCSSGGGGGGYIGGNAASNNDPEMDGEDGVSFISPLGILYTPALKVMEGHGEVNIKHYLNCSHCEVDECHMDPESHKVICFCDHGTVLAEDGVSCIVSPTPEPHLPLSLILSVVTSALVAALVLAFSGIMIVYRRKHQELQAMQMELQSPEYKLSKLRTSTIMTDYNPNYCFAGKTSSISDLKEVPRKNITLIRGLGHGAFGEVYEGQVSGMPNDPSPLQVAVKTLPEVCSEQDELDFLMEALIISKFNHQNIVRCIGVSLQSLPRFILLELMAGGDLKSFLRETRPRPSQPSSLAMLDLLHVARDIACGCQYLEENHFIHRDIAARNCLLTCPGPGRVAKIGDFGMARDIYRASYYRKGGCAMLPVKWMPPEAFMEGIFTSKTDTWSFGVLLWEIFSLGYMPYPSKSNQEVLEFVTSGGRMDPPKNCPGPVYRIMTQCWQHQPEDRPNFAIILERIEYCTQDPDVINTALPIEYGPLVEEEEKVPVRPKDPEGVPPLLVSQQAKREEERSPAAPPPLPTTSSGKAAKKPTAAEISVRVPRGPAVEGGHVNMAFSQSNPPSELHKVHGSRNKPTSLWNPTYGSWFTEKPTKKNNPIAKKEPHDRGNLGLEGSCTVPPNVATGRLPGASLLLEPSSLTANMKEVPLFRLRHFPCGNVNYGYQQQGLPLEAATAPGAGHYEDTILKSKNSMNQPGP
Experimental: as §1, §2

[12] = biological target: T12, CaMKI (Homo sapiens, UniProt Q14012); test: Kinase HotSpot 40-kinase panel
T12 construct: purchased Reaction Biology Corp. (Kinase HotSpot)
Experimental: as §1, §2

[13] = biological target: T13, IR (Homo sapiens, UniProt P06213); test: Kinase HotSpot 40-kinase panel
T13 construct: purchased Reaction Biology Corp. (Kinase HotSpot)
Experimental: as §1, §2

[14] = biological target: T14, MEK1 (Homo sapiens, UniProt Q02750); test: Kinase HotSpot 40-kinase panel
T14 construct: purchased Reaction Biology Corp. (Kinase HotSpot)
Experimental: as §1, §2

[15] = biological target: T15, ROS/ROS1 (Homo sapiens, UniProt P08922); test: Kinase HotSpot 40-kinase panel
T15 construct: purchased Reaction Biology Corp. (Kinase HotSpot)
Experimental: as §1, §2

[16] = biological target: T16, GSK3β (Homo sapiens, UniProt P49841); test: Kinase HotSpot 40-kinase panel
T16 construct: purchased Reaction Biology Corp. (Kinase HotSpot)
Experimental: as §1, §2

[17] = biological target: T17, IKKβ (Homo sapiens, UniProt O14920); test: Kinase HotSpot 40-kinase panel
T17 construct: purchased Reaction Biology Corp. (Kinase HotSpot)
T17 sequence (O14920 whole entry): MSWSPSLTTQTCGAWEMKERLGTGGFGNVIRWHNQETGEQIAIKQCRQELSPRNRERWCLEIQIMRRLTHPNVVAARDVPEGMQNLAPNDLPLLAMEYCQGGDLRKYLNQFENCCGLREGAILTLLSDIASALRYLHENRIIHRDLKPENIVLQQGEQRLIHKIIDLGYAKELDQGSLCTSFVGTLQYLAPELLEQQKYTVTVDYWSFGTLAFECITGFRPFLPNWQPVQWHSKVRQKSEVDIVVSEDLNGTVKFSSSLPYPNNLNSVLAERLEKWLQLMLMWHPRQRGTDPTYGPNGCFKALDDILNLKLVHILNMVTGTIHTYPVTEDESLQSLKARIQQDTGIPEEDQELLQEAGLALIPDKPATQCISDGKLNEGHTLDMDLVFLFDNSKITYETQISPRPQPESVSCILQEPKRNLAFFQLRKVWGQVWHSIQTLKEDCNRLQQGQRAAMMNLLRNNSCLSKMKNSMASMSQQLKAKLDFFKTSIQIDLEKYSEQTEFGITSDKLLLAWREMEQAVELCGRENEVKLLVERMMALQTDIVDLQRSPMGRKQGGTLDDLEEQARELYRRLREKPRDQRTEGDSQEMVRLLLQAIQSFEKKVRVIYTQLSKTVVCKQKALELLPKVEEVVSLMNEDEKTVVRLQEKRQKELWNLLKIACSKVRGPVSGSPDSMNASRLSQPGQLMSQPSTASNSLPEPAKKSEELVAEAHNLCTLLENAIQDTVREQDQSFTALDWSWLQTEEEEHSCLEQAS
Experimental: as §1, §2

[18] = biological target: T18, ROCK1 (Homo sapiens, UniProt Q13464); test: Kinase HotSpot 40-kinase panel
T18 construct: purchased Reaction Biology Corp. (Kinase HotSpot)
Experimental: as §1, §2

[19] = biological target: T19, PDK1 (Homo sapiens, UniProt O15530); test: Kinase HotSpot 40-kinase panel
T19 construct: purchased Reaction Biology Corp. (Kinase HotSpot)
Experimental: as §1, §2

[20] = biological target: T20, Aurora A (Homo sapiens, UniProt O14965); test: Kinase HotSpot 40-kinase panel
T20 construct: purchased Reaction Biology Corp. (Kinase HotSpot)
Experimental: as §1, §2

[21] = biological target: T21, FGFR1 (Homo sapiens, UniProt P11362); test: Kinase HotSpot 40-kinase panel
T21 construct: purchased Reaction Biology Corp. (Kinase HotSpot)
Experimental: as §1, §2

[22] = biological target: T22, EGFR (T790M) (Homo sapiens, UniProt P00533, T790M); test: Kinase HotSpot 40-kinase panel
T22 construct: purchased Reaction Biology Corp. (Kinase HotSpot)
T22 sequence (P00533 25-1210 T790M): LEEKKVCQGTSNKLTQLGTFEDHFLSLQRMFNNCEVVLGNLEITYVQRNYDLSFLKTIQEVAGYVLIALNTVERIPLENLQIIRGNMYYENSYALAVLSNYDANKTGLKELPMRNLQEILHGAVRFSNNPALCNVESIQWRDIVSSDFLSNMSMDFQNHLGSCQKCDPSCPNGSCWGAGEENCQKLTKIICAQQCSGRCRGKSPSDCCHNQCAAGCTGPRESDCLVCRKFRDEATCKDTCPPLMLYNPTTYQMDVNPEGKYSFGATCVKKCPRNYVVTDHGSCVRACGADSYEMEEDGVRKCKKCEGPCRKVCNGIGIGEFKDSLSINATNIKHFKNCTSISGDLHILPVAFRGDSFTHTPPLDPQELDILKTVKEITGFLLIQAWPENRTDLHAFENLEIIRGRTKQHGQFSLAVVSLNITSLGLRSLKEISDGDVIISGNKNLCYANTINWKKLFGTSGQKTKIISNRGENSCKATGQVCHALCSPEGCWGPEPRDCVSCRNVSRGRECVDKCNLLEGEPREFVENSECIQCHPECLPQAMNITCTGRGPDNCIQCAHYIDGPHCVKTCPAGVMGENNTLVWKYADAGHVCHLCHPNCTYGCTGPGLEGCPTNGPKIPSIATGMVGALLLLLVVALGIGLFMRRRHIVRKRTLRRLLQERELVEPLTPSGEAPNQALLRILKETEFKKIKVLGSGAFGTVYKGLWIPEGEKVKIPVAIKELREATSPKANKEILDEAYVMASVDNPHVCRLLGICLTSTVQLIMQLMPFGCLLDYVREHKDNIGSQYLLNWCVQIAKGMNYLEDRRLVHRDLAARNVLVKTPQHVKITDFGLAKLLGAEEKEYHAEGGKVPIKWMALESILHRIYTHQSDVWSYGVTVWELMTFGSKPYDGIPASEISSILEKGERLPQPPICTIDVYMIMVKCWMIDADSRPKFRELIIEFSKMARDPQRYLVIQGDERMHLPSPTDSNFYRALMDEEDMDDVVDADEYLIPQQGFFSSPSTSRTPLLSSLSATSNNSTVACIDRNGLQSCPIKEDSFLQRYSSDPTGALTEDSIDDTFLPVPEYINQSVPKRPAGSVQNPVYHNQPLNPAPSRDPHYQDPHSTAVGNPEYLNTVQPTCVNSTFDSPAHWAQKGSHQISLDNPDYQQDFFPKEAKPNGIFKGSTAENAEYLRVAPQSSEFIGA
Experimental: as §1, §2

[23] = biological target: T23, KDR (Homo sapiens, UniProt P35968); test: Kinase HotSpot 40-kinase panel
T23 construct: purchased Reaction Biology Corp. (Kinase HotSpot)
Experimental: as §1, §2

[24] = biological target: T24, PAK2 (Homo sapiens, UniProt Q13177); test: Kinase HotSpot 40-kinase panel
T24 construct: purchased Reaction Biology Corp. (Kinase HotSpot)
Experimental: as §1, §2

[25] = biological target: T25, EPHA1 (Homo sapiens, UniProt P21709); test: Kinase HotSpot 40-kinase panel
T25 construct: purchased Reaction Biology Corp. (Kinase HotSpot)
Experimental: as §1, §2

[26] = biological target: T26, RSK1 (Homo sapiens, UniProt Q15418); test: Kinase HotSpot 40-kinase panel
T26 construct: purchased Reaction Biology Corp. (Kinase HotSpot)
Experimental: as §1, §2

[27] = biological target: T27, c-SRC (Homo sapiens, UniProt P12931); test: Kinase HotSpot 40-kinase panel
T27 construct: purchased Reaction Biology Corp. (Kinase HotSpot)
Experimental: as §1, §2

[28] = biological target: T28, TEC (activated) (Homo sapiens, UniProt P42680); test: Kinase HotSpot 40-kinase panel
T28 construct: purchased Reaction Biology Corp. (Kinase HotSpot)
Experimental: as §1, §2

[29] = biological target: T29, LCK (Homo sapiens, UniProt P06239); test: Kinase HotSpot 40-kinase panel
T29 construct: purchased Reaction Biology Corp. (Kinase HotSpot)
Experimental: as §1, §2

[30] = biological target: T30, FYN (Homo sapiens, UniProt P06241); test: Kinase HotSpot 40-kinase panel
T30 construct: purchased Reaction Biology Corp. (Kinase HotSpot)
Experimental: as §1, §2

[31] = biological target: T31, ABL1 (Homo sapiens, UniProt P00519); test: Kinase HotSpot 40-kinase panel
T31 construct: purchased Reaction Biology Corp. (Kinase HotSpot)
Experimental: as §1, §2

[32] = biological target: T32, DMPK (Homo sapiens, UniProt Q09013); test: Kinase HotSpot 40-kinase panel
T32 construct: purchased Reaction Biology Corp. (Kinase HotSpot)
T32 sequence (Q09013 whole entry): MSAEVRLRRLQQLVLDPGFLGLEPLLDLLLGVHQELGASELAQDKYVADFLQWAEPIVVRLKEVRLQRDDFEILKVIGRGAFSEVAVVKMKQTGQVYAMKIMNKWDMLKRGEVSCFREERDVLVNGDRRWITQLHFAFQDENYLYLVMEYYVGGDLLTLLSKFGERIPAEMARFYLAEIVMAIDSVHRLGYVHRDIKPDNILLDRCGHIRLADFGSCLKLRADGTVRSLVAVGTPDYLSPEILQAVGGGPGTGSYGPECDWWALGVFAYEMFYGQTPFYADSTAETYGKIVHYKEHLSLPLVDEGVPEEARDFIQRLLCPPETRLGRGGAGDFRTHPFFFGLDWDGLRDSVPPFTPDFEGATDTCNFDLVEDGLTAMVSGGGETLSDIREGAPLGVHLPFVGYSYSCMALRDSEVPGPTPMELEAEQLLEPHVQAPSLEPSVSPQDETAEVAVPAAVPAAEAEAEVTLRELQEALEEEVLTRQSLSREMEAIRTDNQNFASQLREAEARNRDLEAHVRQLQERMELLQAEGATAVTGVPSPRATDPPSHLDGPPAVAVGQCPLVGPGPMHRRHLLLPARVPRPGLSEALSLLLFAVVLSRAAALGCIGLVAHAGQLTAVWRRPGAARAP
Experimental: as §1, §2

[33] = biological target: T33, BTK (Homo sapiens, UniProt Q06187); test: Kinase HotSpot 40-kinase panel
T33 construct: purchased Reaction Biology Corp. (Kinase HotSpot)
Experimental: as §1, §2

[34] = biological target: T34, CHK1 (Homo sapiens, UniProt O14757); test: Kinase HotSpot 40-kinase panel
T34 construct: purchased Reaction Biology Corp. (Kinase HotSpot)
T34 sequence (O14757 whole entry): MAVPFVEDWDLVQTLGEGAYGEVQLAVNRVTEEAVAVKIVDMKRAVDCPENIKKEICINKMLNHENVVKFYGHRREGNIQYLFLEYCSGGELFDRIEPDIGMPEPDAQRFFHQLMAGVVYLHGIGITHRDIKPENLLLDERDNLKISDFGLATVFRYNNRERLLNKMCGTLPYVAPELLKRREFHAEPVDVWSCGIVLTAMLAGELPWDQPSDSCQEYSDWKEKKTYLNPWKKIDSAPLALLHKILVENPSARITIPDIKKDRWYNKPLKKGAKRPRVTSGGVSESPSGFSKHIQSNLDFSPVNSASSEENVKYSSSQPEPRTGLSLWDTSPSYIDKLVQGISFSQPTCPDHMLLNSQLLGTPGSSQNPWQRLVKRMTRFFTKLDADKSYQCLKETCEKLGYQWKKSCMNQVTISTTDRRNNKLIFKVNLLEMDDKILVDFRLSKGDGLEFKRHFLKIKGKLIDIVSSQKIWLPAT
Experimental: as §1, §2

[35] = biological target: T35, PIM1 (Homo sapiens, UniProt P11309); test: Kinase HotSpot 40-kinase panel
T35 construct: purchased Reaction Biology Corp. (Kinase HotSpot)
Experimental: as §1, §2

[36] = biological target: T36, HIPK2 (Homo sapiens, UniProt Q9H2X6); test: Kinase HotSpot 40-kinase panel
T36 construct: purchased Reaction Biology Corp. (Kinase HotSpot)
Experimental: as §1, §2

[37] = biological target: T37, IGF-1R (Homo sapiens, UniProt P08069); test: Kinase HotSpot 40-kinase panel
T37 construct: purchased Reaction Biology Corp. (Kinase HotSpot)
Experimental: as §1, §2

[38] = biological target: T38, CDK5/p25 (Homo sapiens, UniProt Q00535); test: Kinase HotSpot 40-kinase panel
T38 construct: purchased Reaction Biology Corp. (Kinase HotSpot)
Experimental: as §1, §2

[39] = biological target: T39, P70S6K (Homo sapiens, UniProt P23443); test: Kinase HotSpot 40-kinase panel
T39 construct: purchased Reaction Biology Corp. (Kinase HotSpot)
Experimental: as §1, §2

[40] = biological target: T40, SAPK2a (Homo sapiens, UniProt Q16539); test: Kinase HotSpot 40-kinase panel
T40 construct: purchased Reaction Biology Corp. (Kinase HotSpot)
Experimental: as §1, §2

Nc1nccc2c1ccn2-c1cccc(NC(=O)c2ccc(N3CCOCC3)c(C(F)(F)F)c2)c1 [Compound 1r]
% Inhibition [1]: 81%
% Inhibition [2]: −2%
% Inhibition [3]: 40%
% Inhibition [4]: −4%
% Inhibition [5]: −5%
% Inhibition [6]: 42%
% Inhibition [7]: 7%
% Inhibition [8]: −5%
% Inhibition [9]: 27%
% Inhibition [10]: −1%
% Inhibition [11]: 0%
% Inhibition [12]: −23%
% Inhibition [13]: 5%
% Inhibition [14]: −7%
% Inhibition [15]: −4%
% Inhibition [16]: −3%
% Inhibition [17]: 1%
% Inhibition [18]: 2%
% Inhibition [19]: −7%
% Inhibition [20]: −2%
% Inhibition [21]: −3%
% Inhibition [22]: 4%
% Inhibition [23]: 1%
% Inhibition [24]: −9%
% Inhibition [25]: −10%
% Inhibition [26]: −4%
% Inhibition [27]: −4%
% Inhibition [28]: 10%
% Inhibition [29]: −7%
% Inhibition [30]: 14%
% Inhibition [31]: 15%
% Inhibition [32]: −1%
% Inhibition [33]: 1%
% Inhibition [34]: −6%
% Inhibition [35]: −6%
% Inhibition [36]: 6%
% Inhibition [37]: 4%
% Inhibition [38]: −5%
% Inhibition [39]: −8%
% Inhibition [40]: −1%

O=C(Nc1cccc(-n2ccc3c(NC(=O)c4ccccc4)nccc32)c1)c1ccc(N2CCOCC2)c(C(F)(F)F)c1 [KIST101029, reference compound]
inhibition at 1 µM [1]: 90%
inhibition at 1 µM [2]: -10%
inhibition at 1 µM [3]: -16%
inhibition at 1 µM [4]: -1%
inhibition at 1 µM [5]: -1%
inhibition at 1 µM [6]: 16%
inhibition at 1 µM [7]: 4%
inhibition at 1 µM [8]: 6%
inhibition at 1 µM [9]: 57%
inhibition at 1 µM [10]: -12%
inhibition at 1 µM [11]: 11%
inhibition at 1 µM [12]: -1%
inhibition at 1 µM [13]: 2%
inhibition at 1 µM [14]: 12%
inhibition at 1 µM [15]: 19%
inhibition at 1 µM [16]: 4%
inhibition at 1 µM [17]: 23%
inhibition at 1 µM [18]: 3%
inhibition at 1 µM [19]: -1%
inhibition at 1 µM [20]: 21%
inhibition at 1 µM [21]: 6%
inhibition at 1 µM [22]: 1%
inhibition at 1 µM [23]: 71%
inhibition at 1 µM [24]: 2%
inhibition at 1 µM [25]: 9%
inhibition at 1 µM [26]: 8%
inhibition at 1 µM [27]: 10%
inhibition at 1 µM [28]: 14%
inhibition at 1 µM [29]: 33%
inhibition at 1 µM [30]: 44%
inhibition at 1 µM [31]: 41%
inhibition at 1 µM [32]: -18%
inhibition at 1 µM [33]: 7%
inhibition at 1 µM [34]: -8%
inhibition at 1 µM [35]: 10%
inhibition at 1 µM [36]: 9%
inhibition at 1 µM [37]: 10%
inhibition at 1 µM [38]: 8%
inhibition at 1 µM [39]: 7%
inhibition at 1 µM [40]: 25%
